Data set [1] deals with Mus musculus. The data set can be described thus: Effect on DSS-induced body weight loss in ulcerative colitis male C57BL/6J mouse model at 100 mg/kg, po administered for 8 days. The format is functional, organism-based. The following applies: time 8.0 day.
The test system of data set [2] is RAW264.7. Put plainly: Antiinflammatory activity in LPS-induced mouse RAW264.7 cells assessed as reduction in IL-1beta mRNA expression level at 20 uM by qRT-PCR analysis. The format is functional, cell-based. For orientation: Quantitative PCR measures a nucleic acid by following its amplification.
The test system of data set [3] is RAW264.7. Put plainly: Antiinflammatory activity in mouse RAW264.7 cells assessed as inhibition of LPS-induced NO production incubated for 24 hrs. In kind it is functional, cell-based. The conditions noted are these: RAW264.7, 24 h.
The test system of data set [4] is Mus musculus. The data set can be described thus: Effect on DSS-induced body weight loss in ulcerative colitis male C57BL/6J mouse model at 15 mg/kg, po administered for 8 days. In kind it is functional, organism-based. The following applies: time 8.0 day.
Data set [5] has as its system Mus musculus. The data set can be described thus: Antiinflammatory activity against DSS-induced ulcerative colitis C57BL/6J mouse model assessed as reduction in TNF-alpha mRNA expression level in colon at 15 mg/kg, po administered for 8 days by qRT-PCR analysis. In kind it is functional, organism-based. The conditions noted are these: time 8.0 day.
Data set [6] relates to Mus musculus. Put plainly: Antiinflammatory activity against DSS-induced ulcerative colitis C57BL/6J mouse model assessed as increase in CLAUDIN-1 protein level in colon at 15 mg/kg, po administered for 8 days by Western blot analysis. The following applies: time 8.0 day. In kind it is functional, organism-based.
The subject of data set [7] is RAW264.7. The data set can be described thus: Inhibition of P38 phosphorylation in LPS-induced mouse RAW264.7 cells at 20 uM by Western blot analysis. In kind it is cell-based. Background: Immunoblotting shows a protein as a band on a membrane.
Data set [8] deals with RAW264.7. Put plainly: Antiinflammatory activity in LPS-induced mouse RAW264.7 cells assessed as inhibition of TNF-alpha production at 20 uM by ELISA. The format is functional, cell-based. In general terms: ELISA stands for enzyme-linked immunosorbent assay.
The subject of data set [9] is Mus musculus. Put plainly: Antiinflammatory activity against DSS-induced ulcerative colitis C57BL/6J mouse model assessed as reduction in H and E histopathological score at 15 mg/kg, po administered for 8 days by H and E staining based analysis. In kind it is functional, organism-based. The conditions noted are these: time 8.0 day.
Data set [10] concerns the target c-Jun N-terminal kinase (Mus musculus) (UniProt Q91Y86+Q9WTU6+Q61831). Put plainly: Inhibition of JNK phosphorylation in LPS-induced mouse RAW264.7 cells at 20 uM by Western blot analysis. The format is cell-based.
Data set [11] deals with RAW264.7. Put plainly: Antiinflammatory activity in LPS-induced mouse RAW264.7 cells assessed as inhibition of IL-6 production at 20 uM by ELISA. The format is functional, cell-based.
Data set [12] relates to Mus musculus. Put plainly: Antiinflammatory activity against DSS-induced ulcerative colitis C57BL/6J mouse model assessed as reduction in DAI score at 15 mg/kg, po administered for 8 days. The format is functional, organism-based. The conditions noted are these: time 8.0 day.
Data set [13] has as its system RAW264.7. Put plainly: Antiinflammatory activity in mouse RAW264.7 cells assessed as inhibition of LPS-induced NO production at 20 uM incubated for 24 hrs relative to control. The format is functional.
Data set [14] relates to RAW264.7. Put plainly: Antiinflammatory activity in LPS-induced mouse RAW264.7 cells assessed as reduction in iNOS mRNA expression level at 20 uM by qRT-PCR analysis. In kind it is functional, cell-based.
For data set [15], the system named is Mus musculus. The data set can be described thus: Antiinflammatory activity against DSS-induced ulcerative colitis C57BL/6J mouse model assessed as reduction in intestinal epithelial destruction in colon at 15 mg/kg, po administered for 8 days by Hand E staining based histopathological analysis. In kind it is functional, organism-based. The conditions noted are these: time 8.0 day.

Data set [16] deals with Mus musculus. The data set can be described thus: Antiinflammatory activity against DSS-induced ulcerative colitis C57BL/6J mouse model assessed as reduction in iNOS mRNA expression level in colon at 15 mg/kg, po administered for 8 days by qRT-PCR analysis. The format is functional, organism-based. The conditions noted are these: time 8.0 day.
The test system of data set [17] is Mus musculus. The data set can be described thus: Antiinflammatory activity against DSS-induced ulcerative colitis C57BL/6J mouse model assessed as reduction in IL-1beta mRNA expression level in colon at 15 mg/kg, po administered for 8 days by qRT-PCR analysis. The format is functional, organism-based. The following applies: time 8.0 day.
The test system of data set [18] is Mus musculus. Put plainly: Antiinflammatory activity against DSS-induced ulcerative colitis C57BL/6J mouse model assessed as reduction in Ccl2 mRNA expression level in colon at 15 mg/kg, po administered for 8 days by qRT-PCR analysis. The format is functional, organism-based. The following applies: time 8.0 day.
In data set [19] the test system is Mus musculus. The data set can be described thus: Antiinflammatory activity against DSS-induced ulcerative colitis C57BL/6J mouse model assessed as reduction in inflammatory cell infiltration in colon at 15 mg/kg, po administered for 8 days by Hand E staining based histopathological analysis. The conditions noted are these: time 8.0 day. In kind it is functional, organism-based.

The subject of data set [20] is Mus musculus. The data set can be described thus: Antiinflammatory activity against DSS-induced ulcerative colitis C57BL/6J mouse model assessed as increase in OCCLUDIN protein level in colon at 15 mg/kg, po administered for 8 days by Western blot analysis. In kind it is functional, organism-based. The following applies: time 8.0 day.
The subject of data set [21] is RAW264.7. Put plainly: Inhibition of NF-kappaB transcriptional activity in LPS-induced mouse RAW264.7 cells at 20 uM by luciferase based assay. The format is cell-based.
For data set [22], the system named is RAW264.7. Put plainly: Antiinflammatory activity in LPS-induced mouse RAW264.7 cells assessed as reduction in IL-6 mRNA expression level at 20 uM by qRT-PCR analysis. In kind it is functional, cell-based.
In data set [23] the target is Transcription factor p65 (Mus musculus) (UniProt Q04207). Put plainly: Inhibition of p65 activation in LPS-induced mouse RAW264.7 cells at 20 uM by Western blot analysis. The format is cell-based.
Chain of Transcription factor p65 (Mus musculus) (Q04207 whole entry): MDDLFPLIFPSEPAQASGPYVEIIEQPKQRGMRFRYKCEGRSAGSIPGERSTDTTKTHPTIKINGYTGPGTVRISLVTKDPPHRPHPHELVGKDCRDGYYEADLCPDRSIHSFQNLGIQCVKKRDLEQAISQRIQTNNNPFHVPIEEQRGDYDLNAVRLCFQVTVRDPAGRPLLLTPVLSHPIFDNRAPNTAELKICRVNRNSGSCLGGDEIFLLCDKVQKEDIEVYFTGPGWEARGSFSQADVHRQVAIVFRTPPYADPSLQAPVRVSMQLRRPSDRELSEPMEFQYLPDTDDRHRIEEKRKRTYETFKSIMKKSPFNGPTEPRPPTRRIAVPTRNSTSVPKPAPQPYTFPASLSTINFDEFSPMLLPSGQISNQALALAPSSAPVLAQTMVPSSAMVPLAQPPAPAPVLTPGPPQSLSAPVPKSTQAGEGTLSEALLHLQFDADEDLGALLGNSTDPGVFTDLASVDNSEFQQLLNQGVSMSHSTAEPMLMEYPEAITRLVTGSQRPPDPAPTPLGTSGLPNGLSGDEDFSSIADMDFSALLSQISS
For data set [24], the system named is Mus musculus. The data set can be described thus: Antiinflammatory activity against DSS-induced ulcerative colitis C57BL/6J mouse model assessed as increase in […] protein level in colon at 15 mg/kg, po administered for 8 days by Western blot analysis. The format is functional, organism-based. The conditions noted are these: time 8.0 day.
Data set [25] in a line: Cytotoxicity against mouse RAW264.7 cells assessed as cell viability at 20 uM incubated for 24 hrs by CCK8 assay relative to control. In kind it is toxicity, cell-based. The conditions noted are these: read-out: Activity.
Data set [26] relates to Mus musculus. Put plainly: Antiinflammatory activity against DSS-induced ulcerative colitis C57BL/6J mouse model assessed as reduction in goblet cell loss in colon at 15 mg/kg, po administered for 8 days by alcian blue staining based analysis. In kind it is functional, organism-based. The following applies: time 8.0 day.
In data set [27] the test system is RAW264.7. Put plainly: Inhibition of ERK phosphorylation in LPS-induced mouse RAW264.7 cells at 20 uM by Western blot analysis. In kind it is cell-based.
The test system of data set [28] is RAW264.7. The data set can be described thus: Antiinflammatory activity in LPS-induced mouse RAW264.7 cells assessed as reduction in TNF-alpha mRNA expression level at 20 uM by qRT-PCR analysis. The format is functional, cell-based.
The subject of data set [29] is RAW264.7. Put plainly: Antiinflammatory activity in LPS-induced mouse RAW264.7 cells assessed as reduction in Ccl2 gene expression by heat map analysis. In kind it is functional, cell-based.
Data set [30] concerns RAW264.7. Put plainly: Antiinflammatory activity in LPS-induced mouse RAW264.7 cells assessed as reduction in IL-6 gene expression by heat map analysis. In kind it is functional, cell-based.
The subject of data set [31] is RAW264.7. The data set can be described thus: Antiinflammatory activity in LPS-induced mouse RAW264.7 cells assessed as reduction in IL-1beta gene expression by heat map analysis. In kind it is functional, cell-based.
Data set [32] deals with RAW264.7. Put plainly: Antiinflammatory activity in LPS-induced mouse RAW264.7 cells assessed as reduction in Ccl7 gene expression by heat map analysis. The format is functional, cell-based.
Data set [33] deals with RAW264.7. Put plainly: Antiinflammatory activity in LPS-induced mouse RAW264.7 cells assessed as reduction in Cxcl10 gene expression by heat map analysis. The format is functional, cell-based.

The source made the active and inactive calls. The calls are words filed in the database; no cut-off is given here.

Chain of c-Jun N-terminal kinase (Mus musculus) (Q61831 whole entry, looked up): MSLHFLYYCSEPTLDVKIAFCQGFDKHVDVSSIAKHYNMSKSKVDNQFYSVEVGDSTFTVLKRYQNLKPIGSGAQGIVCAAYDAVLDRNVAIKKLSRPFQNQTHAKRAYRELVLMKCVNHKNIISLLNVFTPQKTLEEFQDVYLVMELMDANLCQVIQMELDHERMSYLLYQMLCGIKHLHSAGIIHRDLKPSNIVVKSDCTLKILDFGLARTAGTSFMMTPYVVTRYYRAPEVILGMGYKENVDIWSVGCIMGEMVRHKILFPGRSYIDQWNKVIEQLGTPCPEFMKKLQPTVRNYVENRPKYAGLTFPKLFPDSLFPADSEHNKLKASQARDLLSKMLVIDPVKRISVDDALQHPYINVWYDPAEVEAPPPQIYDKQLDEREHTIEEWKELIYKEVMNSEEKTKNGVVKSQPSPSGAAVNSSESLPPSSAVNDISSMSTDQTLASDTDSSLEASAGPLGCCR
Chain of c-Jun N-terminal kinase (Mus musculus) (Q91Y86 whole entry, looked up): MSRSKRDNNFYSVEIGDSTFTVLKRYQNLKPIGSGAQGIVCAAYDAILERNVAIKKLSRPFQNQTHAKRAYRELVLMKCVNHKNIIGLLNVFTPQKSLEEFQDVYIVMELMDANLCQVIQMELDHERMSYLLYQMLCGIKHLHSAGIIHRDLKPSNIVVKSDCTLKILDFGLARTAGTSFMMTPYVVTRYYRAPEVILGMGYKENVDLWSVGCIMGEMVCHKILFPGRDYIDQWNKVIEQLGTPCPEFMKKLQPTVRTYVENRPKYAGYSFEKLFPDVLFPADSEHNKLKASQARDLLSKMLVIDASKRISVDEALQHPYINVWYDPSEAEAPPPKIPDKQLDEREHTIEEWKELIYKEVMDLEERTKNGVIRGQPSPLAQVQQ
Chain of c-Jun N-terminal kinase (Mus musculus) (Q9WTU6 whole entry, looked up): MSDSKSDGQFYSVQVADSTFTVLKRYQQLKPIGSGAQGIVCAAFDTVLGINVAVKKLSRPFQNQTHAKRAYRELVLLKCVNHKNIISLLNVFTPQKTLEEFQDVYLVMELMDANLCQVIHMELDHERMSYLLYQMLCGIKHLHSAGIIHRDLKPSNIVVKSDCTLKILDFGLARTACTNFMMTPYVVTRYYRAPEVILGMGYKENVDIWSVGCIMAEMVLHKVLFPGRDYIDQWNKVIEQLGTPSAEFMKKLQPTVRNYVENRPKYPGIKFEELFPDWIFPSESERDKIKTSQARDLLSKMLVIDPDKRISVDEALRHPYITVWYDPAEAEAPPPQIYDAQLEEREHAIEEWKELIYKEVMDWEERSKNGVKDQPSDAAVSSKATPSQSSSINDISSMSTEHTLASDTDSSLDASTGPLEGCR

As for `Nc1ccc(O)c(C(=O)O)c1`, the outcome in the data set on Mus musculus [1] was inactive.

In the case of `C=C1C(=O)O[C@]2(C)CC[C@@H]1C[C@@H]1O[C@@]1(C)CC/C=C(\C)CC[C@H]2OC(C)=O`, the outcome in the data set on RAW264.7 [2], with Mus musculus [5], in the data set on Mus musculus [6], in the data set with RAW264.7 [8], in the data set with Mus musculus [9] and with RAW264.7 [11] was Active. The outcome with Mus musculus [12], in the data set on RAW264.7 [14], in the data set with Mus musculus [15], with Mus musculus [16], in the data set on Mus musculus [17] and in the data set on Mus musculus [18] was Active. Moreover, the outcome in the data set with Mus musculus [19], in the data set with Mus musculus [20], in the data set with RAW264.7 [22], in the data set on Mus musculus [24], in the data set with Mus musculus [26] and with RAW264.7 [28] was Active. In addition, in the data set with RAW264.7 [3], the IC50 is 1.15 µM. Further, the outcome in the data set on Mus musculus [4] was inactive. The inhibition result in the data set with RAW264.7 [7] is “inactive”. Also, the inhibition entry (in [10]; in the data set on RAW264.7 [21]; in data set [23]; with RAW264.7 [27]) was “Active” in each case. In the data set with RAW264.7 [13], the inhibition at 20 µM was found to be 139%. For the same compound, in data set [25], the viability at 24 h, 20 µM stood at 89%.

Regarding `C=C1C(=O)O[C@]2(C)CC[C@@H]1C[C@@H]1O[C@@]1(C)CC/C=C(\C)CCC2=O`, the outcome in the data set on RAW264.7 [2], with RAW264.7 [29], in the data set on Mus musculus [5], with Mus musculus [6], in the data set on RAW264.7 [8] and in the data set with RAW264.7 [30] was Active. In addition, the outcome in the data set on Mus musculus [9], in the data set with RAW264.7 [31], in the data set on RAW264.7 [11], in the data set with Mus musculus [12], with RAW264.7 [32] and with RAW264.7 [14] was Active. The result with Mus musculus [15], in the data set on Mus musculus [16], in the data set on RAW264.7 [33], in the data set on Mus musculus [17], with Mus musculus [18] and in the data set on Mus musculus [19] was Active. In addition, the result in the data set on Mus musculus [20], with RAW264.7 [22], in the data set with Mus musculus [24], in the data set on Mus musculus [26] and in the data set with RAW264.7 [28] was Active. Besides, the 50% inhibitory concentration (IC50) with RAW264.7 [3] was determined as 0.9 µM. For the same compound, in the data set with Mus musculus [4], the result was inactive. Besides, the inhibition entry in the data set with RAW264.7 [7] is “inactive”. Further, the inhibition entry (in data set [10]; in the data set on RAW264.7 [21]; in data set [23]; in the data set on RAW264.7 [27]) was “Active” each time. Besides, in the data set with RAW264.7 [13], the inhibition at 20 µM was determined as 134%. In addition, the viability at 24 h, 20 µM in [25] was determined as 82.7%.

What is called IC50 is the concentration that gives 50% inhibition. The term inhibition denotes the change of the read-out against control, counted positive when it falls.

The values are drawn from ChEMBL document CHEMBL5523736, “The First Discovery of Marine Polyoxygenated Cembranolides as Potential Agents for the Treatment of Ulcerative Colitis” (J Med Chem, 2024).
